The source made the active and inactive calls. The rule behind the calls is not given here. Where a SMILES comes first, the peptide text is derived from it. Bridges are numbered along the chain shown (N, C = ends). [ ]: non-standard residue; d: D form. The star is where a group is joined. X1 = CC[C@H](C)CCCCC(=O)*; dDab = NCC[C@@H](N)C(=O)O; Dab = NCC[C@H](N)C(=O)O
Assays:
[1] = Acute toxicity in male balb/c mouse assessed as lethal dose at ip administration; format: organism-based; details: in vivo
[2] = Acute toxicity in male balb/c mouse assessed as alveolar shrinkage in lung administered intraperitoneally by H and E staining based analysis; format: tissue-based; details: in vivo, ip
[3] = Acute toxicity in male balb/c mouse assessed as inflammatory cell infiltration in lung administered intraperitoneally by H and E staining based analysis; format: tissue-based; details: in vivo, ip
[4] = Acute toxicity in male balb/c mouse assessed as respiratory depression by measuring tissue bleeding in lung administered intraperitoneally by H and E staining based analysis; details: in vivo, ip
[5] = Acute toxicity in IP dosed male balb/c mouse assessed as animal death; format: organism-based; details: in vivo
Staphylococcus aureus [6] = assay: Inhibition of biofilm formation in Staphylococcus aureus ATCC 25923 incubated for 24 hrs by crystal violet staining based analysis; format: functional, organism-based; details: dose 1-32 µM
Escherichia coli [7] = assay: Inhibition of biofilm formation in Escherichia coli ATCC 25922 incubated for 24 hrs by crystal violet staining based analysis; format: functional, organism-based; details: dose 1-32 µM
Klebsiella pneumoniae [8] = assay: Inhibition of biofilm formation in Klebsiella pneumoniae ATCC 700603 incubated for 24 hrs by crystal violet staining based analysis; format: functional, organism-based; details: dose 1-32 µM
Pseudomonas aeruginosa [9] = assay: Inhibition of biofilm formation in Pseudomonas aeruginosa ATCC 27853 incubated for 24 hrs by crystal violet staining based analysis; format: functional, organism-based; details: dose 1-32 µM
Escherichia coli [10] = assay: Inhibition of biofilm formation in Escherichia coli ATCC 25922 at >= 2 uM incubated for 24 hrs by crystal violet staining based analysis; format: functional, organism-based
Escherichia coli [11] = assay: Inhibition of biofilm formation in Escherichia coli ATCC 25922 at 1 uM incubated for 24 hrs by crystal violet staining based analysis; format: functional, organism-based
Klebsiella pneumoniae [12] = assay: Inhibition of biofilm formation in Klebsiella pneumoniae ATCC 700603 at 1 uM incubated for 24 hrs by crystal violet staining based analysis; format: functional, organism-based
Cell membrane [13] = assay: Induction of cell membrane permeability in Escherichia coli assessed as rough convex surface at 2 times MIC by SEM analysis; format: subcellular
Escherichia coli [14] = assay: Antimicrobial activity against Escherichia coli at 2 times MIC in presence of LPS preincubated for 1 hr followed by bacterial addition and measured after 6 hrs by LPS competitive inhibition assay; format: functional, organism-based
Cell membrane [15] = assay: Induction of Outer membrane permeabilization in Escherichia coli at 8 uM by NPN-dye based fluorescence analysis; format: subcellular
Klebsiella pneumoniae [16] = assay: In vivo antibacterial activity against Klebsiella pneumoniae ATCC 700603 infected in male Balb/c mouse lung infection model assessed as reduction in alveoli expansion at 10 mg/kg, ip measured after 24 hrs by H and E staining based analysis; format: functional, organism-based
Klebsiella pneumoniae [17] = assay: In vivo antibacterial activity against Klebsiella pneumoniae ATCC 700603 infected in male Balb/c mouse lung infection model assessed as reduction in serous exudation of alveolar cavities at 10 mg/kg, ip measured after 24 hrs by H and E staining based analysis; format: functional, organism-based
Klebsiella pneumoniae [18] = assay: In vivo antibacterial activity against Klebsiella pneumoniae ATCC 700603 infected in male Balb/c mouse lung infection model assessed as reduction in crumpling alveoli at 10 mg/kg, ip measured after 24 hrs by H and E staining based analysis; format: functional, organism-based
Klebsiella pneumoniae [19] = assay: In vivo antibacterial activity against Klebsiella pneumoniae ATCC 700603 infected in male Balb/c mouse lung infection model assessed as increase on compensatory dilation at 5 mg/kg, ip and measured after 24 hrs; format: functional, organism-based
Staphylococcus aureus [20] = assay: Antibacterial activity against Staphylococcus aureus ATCC 25923 assessed as inhibition of bacterial growth incubated for 18 hrs by microbroth dilution assay; format: functional
Bacillus subtilis = assay: Antibacterial activity against Bacillus subtilis ATCC 23857 assessed as inhibition of bacterial growth incubated for 18 hrs by microbroth dilution assay; format: functional
[21] = system: Staphylococcus epidermidis; assay: Antibacterial activity against Staphylococcus epidermidis ATCC 12228 assessed as inhibition of bacterial growth incubated for 18 hrs by microbroth dilution assay; format: functional
Klebsiella pneumoniae [22] = assay: Antibacterial activity against Klebsiella pneumoniae ATCC 700603 assessed as inhibition of bacterial growth incubated for 18 hrs by microbroth dilution assay; format: functional
Escherichia coli [23] = assay: Antibacterial activity against Escherichia coli ATCC 25922 assessed as inhibition of bacterial growth incubated for 18 hrs by microbroth dilution assay; format: functional
Pseudomonas aeruginosa [24] = assay: Antibacterial activity against Pseudomonas aeruginosa ATCC 27853 assessed as inhibition of bacterial growth incubated for 18 hrs by microbroth dilution assay; format: functional
Staphylococcus aureus [25] = assay: Antibacterial activity against Staphylococcus aureus ATCC 25923 assessed as fold decrease in presence of 150 mM NaCl; format: functional
Staphylococcus aureus [26] = assay: Antibacterial activity against Staphylococcus aureus ATCC 25923 assessed as fold change in activity in presence of 2 mM CaCl2; format: functional
Staphylococcus aureus [27] = assay: Antibacterial activity against Staphylococcus aureus ATCC 25923 assessed as fold change in activity in presence of 1 mM MgCl2; format: functional
Pseudomonas aeruginosa [28] = assay: Induction of drug resistance in Pseudomonas aeruginosa ATCC 27853 assessed as fold increase in MIC incubated for 24 hrs and measured under 40 passages; format: functional
Staphylococcus aureus [29] = assay: Additive antibacterial activity against Staphylococcus aureus assessed as fractional inhibitory concentration index in presence of ciprofloxacin incubated for 18 hrs by checkerboard method; format: functional
Klebsiella pneumoniae [30] = assay: Bactericidal activity against Klebsiella pneumoniae ATCC 700603 assessed as bacterial eradication by measuring bacterial counts at 2 times MIC measured after 30 mins by Time killing assay relative to control; format: functional; details: 0.5 h
Staphylococcus aureus [31] = assay: Synergistic antibacterial activity against Staphylococcus aureus assessed as fractional inhibitory concentration index in presence of bacitracin incubated for 18 hrs by checkerboard method; format: functional
Escherichia coli [32] = assay: Synergistic antibacterial activity against Escherichia coli assessed as fractional inhibitory concentration index in presence of kanamycin incubated for 18 hrs by checkerboard method; format: functional
Escherichia coli [33] = assay: Synergistic antibacterial activity against Escherichia coli assessed as fractional inhibitory concentration index in presence of rifampin incubated for 18 hrs by checkerboard method; format: functional
Klebsiella pneumoniae [34] = assay: Additive antibacterial activity against Klebsiella pneumoniae assessed as fractional inhibitory concentration index in presence of kanamycin incubated for 18 hrs by checkerboard method; format: functional
Klebsiella pneumoniae [35] = assay: Synergistic antibacterial activity against Klebsiella pneumoniae assessed as fractional inhibitory concentration index in presence of rifampin incubated for 18 hrs by checkerboard method; format: functional
Pseudomonas aeruginosa [36] = assay: Synergistic antibacterial activity against Pseudomonas aeruginosa assessed as fractional inhibitory concentration index in presence of imipenem incubated for 18 hrs by checkerboard method; format: functional
Pseudomonas aeruginosa [37] = assay: Synergistic antibacterial activity against Pseudomonas aeruginosa assessed as fractional inhibitory concentration index in presence of rifampin incubated for 18 hrs by checkerboard method; format: functional
Pseudomonas aeruginosa [38] = assay: Synergistic antibacterial activity against Pseudomonas aeruginosa assessed as fractional inhibitory concentration index in presence of polymyxin B incubated for 18 hrs by checkerboard method; format: functional
Klebsiella pneumoniae [39] = assay: In vivo antibacterial activity against Klebsiella pneumoniae ATCC 700603 infected in male Balb/c mouse lung infection model assessed as reduction in pulmonary bacterial load at 5 mg/kg, ip measured after 24 hrs (reference value: 3.05 x 10^9 CFU/g); format: functional
Klebsiella pneumoniae [40] = assay: In vivo antibacterial activity against Klebsiella pneumoniae ATCC 700603 infected in male Balb/c mouse lung infection model assessed as reduction in pulmonary bacterial load at 10 mg/kg, ip measured after 24 hrs (reference value: 3.05 x 10^9 CFU/g); format: functional

Compound: CC(C)CCCCC(=O)N[C@@H](CCN)C(=O)N[C@H](C(=O)N[C@@H](CCN)C(=O)N[C@H]1CCNC(=O)[C@H]([C@@H](C)O)NC(=O)[C@H](CCN)NC(=O)[C@H](CCN)NC(=O)[C@H](CC(C)C)NC(=O)[C@@H](Cc2ccccc2)NC(=O)[C@H](CCN)NC1=O)[C@@H](C)O.CC[C@H](C)CCCCC(=O)N[C@@H](CCN)C(=O)N[C@H](C(=O)N[C@@H](CCN)C(=O)N[C@H]1CCNC(=O)[C@H]([C@@H](C)O)NC(=O)[C@H](CCN)NC(=O)[C@H](CCN)NC(=O)[C@H](CC(C)C)NC(=O)[C@@H](Cc2ccccc2)NC(=O)[C@H](CCN)NC1=O)[C@@H](C)O (X1-[Dab]T[Dab][Dab][Dab][dF]L[Dab][Dab]T; lactam 4-C) [listing 1 of 2 here]
- LD50 [1]: 17.9 mg/kg
- Activity [2]: Toxic
- Activity [3]: Toxic
- Activity [4]: Toxic
- Activity [5]: Toxic

Compound: CC(C)CCCCC(=O)N[C@@H](CCN)C(=O)N[C@H](C(=O)N[C@@H](CCN)C(=O)N[C@H]1CCNC(=O)[C@H]([C@@H](C)O)NC(=O)[C@H](CCN)NC(=O)[C@H](CCN)NC(=O)[C@H](CC(C)C)NC(=O)[C@@H](Cc2ccccc2)NC(=O)[C@@H](CCN)NC1=O)[C@@H](C)O.CC[C@H](C)CCCCC(=O)N[C@@H](CCN)C(=O)N[C@H](C(=O)N[C@@H](CCN)C(=O)N[C@H]1CCNC(=O)[C@H]([C@@H](C)O)NC(=O)[C@H](CCN)NC(=O)[C@H](CCN)NC(=O)[C@H](CC(C)C)NC(=O)[C@@H](Cc2ccccc2)NC(=O)[C@@H](CCN)NC1=O)[C@@H](C)O (X1-[Dab]T[Dab][Dab][dDab][dF]L[Dab][Dab]T; lactam 4-C)
- inhibition (Staphylococcus aureus [6]): Dose-dependent-effect
- inhibition (Escherichia coli [7]): Dose-dependent-effect
- inhibition (Klebsiella pneumoniae [8]): Dose-dependent-effect
- inhibition (Pseudomonas aeruginosa [9]): Dose-dependent-effect
- inhibition (Escherichia coli [10]): Active
- inhibition (Escherichia coli [11]): Active
- inhibition (Klebsiella pneumoniae [12]): Active
- Activity (Cell membrane [13]): Active
- Activity (Escherichia coli [14]): inactive
- Activity (Cell membrane [15]): Active
- Activity (Klebsiella pneumoniae [16]): Active
- Activity (Klebsiella pneumoniae [17]): Active
- Activity (Klebsiella pneumoniae [18]): Active
- Activity (Klebsiella pneumoniae [19]): Active

Compound: CC(C)CCCCC(=O)N[C@@H](CCN)C(=O)N[C@H](C(=O)N[C@@H](CCN)C(=O)N[C@H]1CCNC(=O)[C@H]([C@@H](C)O)NC(=O)[C@H](CCN)NC(=O)[C@H](CCN)NC(=O)[C@H](CC(C)C)NC(=O)[C@@H](Cc2ccccc2)NC(=O)[C@H](CCN)NC1=O)[C@@H](C)O.CC[C@H](C)CCCCC(=O)N[C@@H](CCN)C(=O)N[C@H](C(=O)N[C@@H](CCN)C(=O)N[C@H]1CCNC(=O)[C@H]([C@@H](C)O)NC(=O)[C@H](CCN)NC(=O)[C@H](CCN)NC(=O)[C@H](CC(C)C)NC(=O)[C@@H](Cc2ccccc2)NC(=O)[C@H](CCN)NC1=O)[C@@H](C)O (X1-[Dab]T[Dab][Dab][Dab][dF]L[Dab][Dab]T; lactam 4-C) [listing 2 of 2 here]
- MIC (Staphylococcus aureus [20]): 8 µM
- MIC (Bacillus subtilis): 4 µM
- MIC [21]: 8 µM
- MIC (Klebsiella pneumoniae [22]): 2 µM
- MIC (Escherichia coli [23]): 2 µM
- MIC (Pseudomonas aeruginosa [24]): 2 µM
- fold change (FC) (Staphylococcus aureus [25]): -4
- fold change (FC) (Staphylococcus aureus [26]): -2
- fold change (FC) (Staphylococcus aureus [27]): -2
- fold change (FC) (Pseudomonas aeruginosa [28]): 8
- fractional inhibitory concentration index (FICI) (Staphylococcus aureus [29]): 0.75
- Activity (Klebsiella pneumoniae [30]): 100%
- fractional inhibitory concentration index (FICI) (Staphylococcus aureus [31]): 0.5
- fractional inhibitory concentration index (FICI) (Escherichia coli [32]): 0.313
- fractional inhibitory concentration index (FICI) (Escherichia coli [33]): 0.313
- fractional inhibitory concentration index (FICI) (Klebsiella pneumoniae [34]): 0.563
- fractional inhibitory concentration index (FICI) (Klebsiella pneumoniae [35]): 0.375
- fractional inhibitory concentration index (FICI) (Pseudomonas aeruginosa [36]): 0.313
- fractional inhibitory concentration index (FICI) (Pseudomonas aeruginosa [37]): 0.313
- fractional inhibitory concentration index (FICI) (Pseudomonas aeruginosa [38]): 0.188
- Activity (Klebsiella pneumoniae [39]): 1.48 10^8CFU/g
- Activity (Klebsiella pneumoniae [40]): 2.46 10^8CFU/g
